Assay results as given in ChEMBL document CHEMBL1125506, “Fluoronaphthyridines as antibacterial agents. 6. Synthesis and structure-activity relationships of new chiral 7-(1-, 3-, 4-, and 6-methyl-2,5-diazabicyclo[2.2.1]heptan-2-yl)naphthyridine analogues of 7-[(1R,4R)-2,5- diazabicyclo[2.2.1]heptan-2-yl]-1-(1,1-dimethylethyl)-6-fluoro-1,4-dihy …” (J Med Chem, 1992).
Converted amounts (≈) assume the structure as drawn.

How the values were obtained:
[1] = Peak concentration in blood after peroral administration to mice; assay type: ADME, organism-based; parameters: route oral; conditions: mouse, po
Morganella morganii = assay: In vitro antibacterial activity against Morganella morganii A15153; assay type: functional
Bacteroides fragilis = assay: In vitro antibacterial activity against Bacteroides fragilis A-22,862; assay type: functional
Mus musculus [2] = assay: In vivo efficacy on systemic infections caused by Streptococcus pneumoniae A9585 in mice after intramuscular administration; assay type: functional; conditions: im, read-out: PD50
Mus musculus [3] = assay: In vivo efficacy on systemic infections caused by Escherichia coli A15119 in mice after intramuscular administration; assay type: functional; conditions: im, read-out: PD50
Mus musculus [4] = assay: In vivo efficacy on systemic infections caused by Streptococcus pneumoniae A9585 in mice after peroral administration; assay type: functional; conditions: po, read-out: PD50
Mus musculus [5] = assay: In vivo efficacy on systemic infections caused by Staphylococcus aureus A15090 in mice after peroral administration; assay type: functional; conditions: po, read-out: PD50
Mus musculus [6] = assay: In vivo efficacy on systemic infections caused by Staphylococcus aureus A15090 in mice after intramuscular administration; assay type: functional; conditions: im, read-out: PD50
Proteus mirabilis = assay: In vitro antibacterial activity against Proteus mirabilis A9900; assay type: functional
Serratia marcescens = assay: In vitro antibacterial activity against Serratia marcescens A20019; assay type: functional
Enterococcus faecalis = assay: In vitro antibacterial activity against Enterococcus faecalis A9809; assay type: functional
Mus musculus [7] = assay: In vivo efficacy on systemic infections caused by Pseudomonas aeruginosa A9843 in mice after intramuscular administration; assay type: functional; conditions: im, read-out: PD50
Mus musculus [8] = assay: percent urinary recovery in 24 hr after intravenous administration to mice; assay type: functional, Urine
[9] = Percent urinary recovery in 24 hr after peroral administration to mice; assay type: ADME, organism-based; conditions: mouse, urine, po; read-out: UR
Mus musculus [10] = assay: In vivo efficacy on systemic infections caused by Escherichia coli A15119 in mice after peroral administration; assay type: functional; conditions: po, read-out: PD50
Klebsiella pneumoniae = assay: In vitro antibacterial activity against Klebsiella pneumoniae A9664; assay type: functional
Staphylococcus aureus = assay: In vitro antibacterial activity against Staphylococcus aureus A9537; assay type: functional
Mus musculus [11] = assay: In vivo efficacy on systemic infections caused by Pseudomonas aeruginosa A9843 in mice after peroral administration; assay type: functional; conditions: po, read-out: PD50
Streptococcus pneumoniae = assay: In vitro antibacterial activity against Streptococcus pneumoniae A9585.; assay type: functional
[12] = Peak concentration in blood after intravenous administration to mice; assay type: ADME, organism-based; parameters: route intravenous; conditions: mouse
[13] = Solubility (water, 22C, pH 7.2); assay type: physicochemical; conditions: read-out: S
Enterobacter cloacae = assay: In vitro antibacterial activity against Enterobacter cloacae A9656; assay type: functional
Mus musculus [14] = assay: In vivo efficacy on systemic infections caused by Pseudomonas aeruginosa A9843 after peroarl administration in mice; assay type: functional; conditions: read-out: PD50
Pseudomonas aeruginosa = assay: In vitro antibacterial activity against Pseudomonas aeruginosa A9843; assay type: functional
Escherichia coli = assay: In vitro antibacterial activity against Escherichia coli A15119; assay type: functional
[15] = Partition coefficient (logD); assay type: physicochemical; conditions: octanol/water

| SMILES | MIC (Morganella morganii) | MIC (Bacteroides fragilis) | ED50 (Mus musculus [2]) | ED50 (Mus musculus [4]) | ED50 (Mus musculus [5]) | ED50 (Mus musculus [6]) | MIC (Proteus mirabilis) | MIC (Serratia marcescens) | MIC (Enterococcus faecalis) | ED50 (Mus musculus [7]) | MIC (Klebsiella pneumoniae) | MIC (Staphylococcus aureus) | MIC (Streptococcus pneumoniae) | further results |
| --- | --- | --- | --- | --- | --- | --- | --- | --- | --- | --- | --- | --- | --- | --- |
| O=C(O)c1cn(C2CC2)c2cc(N3CCNCC3)c(F)cc2c1=O [CIPROFLOXACIN] | 0.008 µg/mL (≈ 0.0241 µM) | 1 µg/mL (≈ 3.02 µM) | 28.7 mg/kg | > 50 mg/kg | 12.5 mg/kg | 3.9 mg/kg | 0.008 µg/mL (≈ 0.0241 µM) | 0.03 µg/mL (≈ 0.0905 µM) | 0.5 µg/mL (≈ 1.51 µM) | 1.3 mg/kg | 0.06 µg/mL (≈ 0.181 µM) | 0.06 µg/mL (≈ 0.181 µM) | 0.25 µg/mL (≈ 0.754 µM) | Cmax [1]: 6000 ng/mL; ED50 (Mus musculus [3]): 0.05 mg/kg; UR (Mus musculus [8]): 25%; dose excreted at 24 h [9]: 30%; ED50 (Mus musculus [10]): 1.4 mg/kg; ED50 (Mus musculus [11]): 2.6 mg/kg; Cmax [12]: 22000 ng/mL |
| C[C@@H]1N[C@@H]2C[C@H]1N(c1nc3c(cc1F)c(=O)c(C(=O)O)cn3-c1ccc(F)cc1F)C2.Cl | 0.5 µg/mL | 4 µg/mL | > 50 mg/kg | > 50 mg/kg | 1.4 mg/kg | 1 mg/kg | 0.5 µg/mL | 0.25 µg/mL | 1 µg/mL | 2.4 mg/kg | 0.13 µg/mL | 0.06 µg/mL | 1 µg/mL | solubility [13]: 15 µg/mL; MIC (Enterobacter cloacae): 0.13 µg/mL; ED50 (Mus musculus [14]): 3.1 mg/kg; MIC (Pseudomonas aeruginosa): 1 µg/mL; MIC (Escherichia coli): 0.03 µg/mL; logD [15]: -0.14 |
